Reference: patent publication US20260015350A1, “AZAQUINAZOLINE PAN-KRAS INHIBITORS” (Mirati Therapeutics, Inc., priority 2022, published 2026)

Columns and labels:
[1] = molecular target: T1, KRas^WT (Homo sapiens, UniProt P01116); test: KRas binding assay (TR-FRET tracer displacement), KRas WT; settings: single point, 10 nM compound, TR-FRET
T1 construct: Biotinylated KRas (corresponding to amino acids 1-169, produced at Accelegan Inc.); biotin (biotinylated); purchased Accelegan Inc

[2] = molecular target: T2, KRas^G12A (Homo sapiens, UniProt P01116, G12A); test: KRas binding assay (TR-FRET tracer displacement), KRas G12A; settings: single point, 10 nM compound, TR-FRET
T2 construct: Biotinylated KRas (corresponding to amino acids 1-169, produced at Accelegan Inc.); biotin (biotinylated); purchased Accelegan Inc
T2 sequence (P01116 1-169 isoform P01116-2 G12A): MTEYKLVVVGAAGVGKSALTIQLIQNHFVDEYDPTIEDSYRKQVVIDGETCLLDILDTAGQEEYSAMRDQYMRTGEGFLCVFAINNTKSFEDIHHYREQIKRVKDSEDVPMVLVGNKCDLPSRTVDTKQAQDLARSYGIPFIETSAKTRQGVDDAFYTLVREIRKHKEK

[3] = molecular target: T3, KRas^G12C (Homo sapiens, UniProt P01116, G12C); test: KRas binding assay (TR-FRET tracer displacement), KRas G12C; settings: single point, 10 nM compound, TR-FRET
T3 construct: Biotinylated KRas (corresponding to amino acids 1-169, produced at Accelegan Inc.); biotin (biotinylated); purchased Accelegan Inc
T3 sequence (P01116 1-169 isoform P01116-2 G12C): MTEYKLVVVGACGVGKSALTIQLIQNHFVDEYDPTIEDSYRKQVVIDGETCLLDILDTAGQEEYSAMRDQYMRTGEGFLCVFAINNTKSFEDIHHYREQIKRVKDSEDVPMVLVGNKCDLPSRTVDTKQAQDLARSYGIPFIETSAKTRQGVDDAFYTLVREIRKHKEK

[4] = molecular target: T4, KRas^G12D (Homo sapiens, UniProt P01116, G12D); test: KRas binding assay (TR-FRET tracer displacement), KRas G12D
T4 construct: Biotinylated KRas (corresponding to amino acids 1-169, produced at Accelegan Inc.); biotin (biotinylated); purchased Accelegan Inc
T4 sequence (P01116 1-169 isoform P01116-2 G12D): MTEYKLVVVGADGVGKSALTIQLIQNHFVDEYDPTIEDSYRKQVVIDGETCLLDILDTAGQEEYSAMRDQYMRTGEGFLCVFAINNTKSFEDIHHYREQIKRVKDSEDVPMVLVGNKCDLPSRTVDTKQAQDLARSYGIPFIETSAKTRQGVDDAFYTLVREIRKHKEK

[5] = molecular target: T5, KRas^G12R (Homo sapiens, UniProt P01116, G12R); test: KRas binding assay (TR-FRET tracer displacement), KRas G12R
T5 construct: Biotinylated KRas (corresponding to amino acids 1-169, produced at Accelegan Inc.); biotin (biotinylated); purchased Accelegan Inc
T5 sequence (P01116 1-169 isoform P01116-2 G12R): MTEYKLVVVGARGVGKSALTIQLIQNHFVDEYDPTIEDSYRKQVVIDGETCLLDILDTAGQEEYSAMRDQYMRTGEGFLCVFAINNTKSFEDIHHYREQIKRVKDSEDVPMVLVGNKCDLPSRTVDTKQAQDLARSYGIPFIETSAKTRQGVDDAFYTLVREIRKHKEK

[6] = molecular target: T6, KRas^G12S (Homo sapiens, UniProt P01116, G12S); test: KRas binding assay (TR-FRET tracer displacement), KRas G12S; settings: single point, 10 nM compound, TR-FRET
T6 construct: Biotinylated KRas (corresponding to amino acids 1-169, produced at Accelegan Inc.); biotin (biotinylated); purchased Accelegan Inc
T6 sequence (P01116 1-169 isoform P01116-2 G12S): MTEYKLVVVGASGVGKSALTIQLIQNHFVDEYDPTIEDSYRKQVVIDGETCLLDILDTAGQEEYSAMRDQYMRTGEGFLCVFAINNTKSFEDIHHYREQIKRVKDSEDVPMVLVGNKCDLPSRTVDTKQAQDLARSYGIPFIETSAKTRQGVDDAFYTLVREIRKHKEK

[7] = molecular target: T7, KRas^G12V (Homo sapiens, UniProt P01116, G12V); test: KRas binding assay (TR-FRET tracer displacement), KRas G12V
T7 construct: Biotinylated KRas (corresponding to amino acids 1-169, produced at Accelegan Inc.); biotin (biotinylated); purchased Accelegan Inc
T7 sequence (P01116 1-169 isoform P01116-2 G12V): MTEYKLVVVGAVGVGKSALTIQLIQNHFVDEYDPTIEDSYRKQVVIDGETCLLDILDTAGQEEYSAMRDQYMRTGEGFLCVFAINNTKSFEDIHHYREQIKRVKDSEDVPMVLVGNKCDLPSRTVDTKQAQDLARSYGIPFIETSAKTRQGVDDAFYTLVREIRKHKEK

[8] = molecular target: T8, KRas^G13D (Homo sapiens, UniProt P01116, G13D); test: KRas binding assay (TR-FRET tracer displacement), KRas G13D; settings: single point, 10 nM compound, TR-FRET
T8 construct: Biotinylated KRas (corresponding to amino acids 1-169, produced at Accelegan Inc.); biotin (biotinylated); purchased Accelegan Inc
T8 sequence (P01116 1-169 isoform P01116-2 G13D): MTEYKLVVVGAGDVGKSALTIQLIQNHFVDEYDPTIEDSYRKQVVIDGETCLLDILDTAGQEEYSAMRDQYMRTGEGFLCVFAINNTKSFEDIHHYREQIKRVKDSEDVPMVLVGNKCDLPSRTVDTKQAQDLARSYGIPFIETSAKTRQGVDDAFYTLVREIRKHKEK

[9] = molecular target: T9, KRas^Q61H (Homo sapiens, UniProt P01116, Q61H); test: KRas binding assay (TR-FRET tracer displacement), KRas Q61H; settings: single point, 10 nM compound, TR-FRET
T9 construct: Biotinylated KRas (corresponding to amino acids 1-169, produced at Accelegan Inc.); biotin (biotinylated); purchased Accelegan Inc
T9 sequence (P01116 1-169 isoform P01116-2 Q61H): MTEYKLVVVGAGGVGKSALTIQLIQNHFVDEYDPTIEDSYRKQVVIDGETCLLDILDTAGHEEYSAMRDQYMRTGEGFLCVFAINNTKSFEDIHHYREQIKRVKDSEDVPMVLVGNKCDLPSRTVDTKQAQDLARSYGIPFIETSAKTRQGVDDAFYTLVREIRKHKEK

[10] = system: KRas-mediated phosphorylation of ERK in MKN1 cells; test: Inhibition of KRas-mediated phosphorylation of ERK (Cisbio HTRF pERK), MKN1 cells; format: cell-based; settings: Homo sapiens, MKN-1
Outline: (§1)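 HTRF pERK read-out; 6,000 cells/well, RPMI_10% FBS, overnight 37° C./5% CO2; 4 h covered incubation at RT before reading.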

[11] = system: KRas-mediated phosphorylation of ERK in PSN1 cells; test: Inhibition of KRas-mediated phosphorylation of ERK (Cisbio HTRF pERK), PSN1 cells; format: cell-based; settings: Homo sapiens
Outline: as §1

[12] = system: KRas-mediated phosphorylation of ERK in AsPC-1 cells; test: Inhibition of KRas-mediated phosphorylation of ERK (Cisbio HTRF pERK), AsPC-1 cells; format: cell-based; settings: Homo sapiens, ASPC1, AsPC-1 cells; HTRF pERK
Outline: (§2)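 Cells were seeded at 6,000 per well and treated for 3 hrs with compound in a 10-dose, 3-fold series from 10 uM (0.8% final DMSO), with 0.2 uM Trametinib as Min control. Lysates made at 4° C over 40 mins were incubated 2 hrs at room temperature with d2- and Cryptate-labelled antibodies, then read by HTRF.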

[13] = system: KRas-mediated phosphorylation of ERK in H727 cells; test: Inhibition of KRas-mediated phosphorylation of ERK (Cisbio HTRF pERK), H727 cells; format: cell-based; settings: Homo sapiens, NCI-H727, H727 cells; HTRF pERK
Outline: as §2

[14] = system: KRas-mediated phosphorylation of ERK in A549 cells; test: Inhibition of KRas-mediated phosphorylation of ERK (Cisbio HTRF pERK), A549 cells; format: cell-based; settings: Homo sapiens, HTRF pERK
Outline: as §2

[15] = system: KRas-mediated phosphorylation of ERK in H460 cells; test: Inhibition of KRas-mediated phosphorylation of ERK (Cisbio HTRF pERK), H460 cells; format: cell-based; settings: Homo sapiens; for IC50: NCI-H460, HTRF pERK
Outline: as §2

[16] = system: KRas-mediated phosphorylation of ERK in HCT116 cells; test: Inhibition of KRas-mediated phosphorylation of ERK (Cisbio HTRF pERK), HCT116 cells; format: cell-based; settings: Homo sapiens; for IC50: HCT-116, HTRF pERK
Outline: as §2

T1 sequence (P01116 1-169 isoform P01116-2): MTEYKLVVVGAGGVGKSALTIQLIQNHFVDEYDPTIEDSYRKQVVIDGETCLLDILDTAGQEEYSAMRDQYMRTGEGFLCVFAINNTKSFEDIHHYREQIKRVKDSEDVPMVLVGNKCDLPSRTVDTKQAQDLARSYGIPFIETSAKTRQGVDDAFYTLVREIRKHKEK

SMILES	inhibition at 0.01 µM [1] [%]	inhibition at 0.01 µM [2] [%]	inhibition at 0.01 µM [3] [%]	IC50 [4] [nM]	IC50 [5] [nM]	inhibition at 0.01 µM [6] [%]	IC50 [7] [nM]	inhibition at 0.01 µM [8] [%]	inhibition at 0.01 µM [9] [%]	IC50 [10] [nM]	IC50 [11] [nM]	IC50 [12] [nM]	IC50 [13] [nM]	IC50 [14] [nM]	IC50 [15] [nM]	IC50 [16] [nM]	inhibition at 0.1 µM ([15]; NCI-H460, 3 h, single point, 100 nM compound, 3 hrs) [%]	inhibition at 0.1 µM ([16]; HCT-116, 3 h, single point, 100 nM compound, 3 hrs) [%]
CCc1c(F)ccc2cc(O)cc(-c3ncc4c(N5CCCn6nncc6C5)nc(OC[C@@]56CCCN5C[C@H](F)C6)nc4c3F)c12 [Example 562, 4-(4-(7,8-dihydro-4H-[1,2,3]triazolo[1,5-a][1,4]diazepin-5(6H)-yl)-8-fluoro-2-(((2R,7aS)-2-fluorohexahydro-1H-pyrrolizin-7a-yl)methoxy)pyrido[4,3-d]pyrimidin-7-yl)-5-ethyl-6-fluoronaphthalen-2-ol]	62	59	76	< 2	3	81	3	69	67	35	> 10000	76	217	496	438	1060	–	–
CCc1cccc2cc3[nH]ncc3c(-c3ncc4c(N5C[C@@H]6C[C@H](C5)[C@H](O)C6)nc(OC[C@@]56CCCN5C[C@H](F)C6)nc4c3F)c12 [Example 767, (1R,5R,6R)-3-(7-(5-ethyl-1H-benzo[f]indazol-4-yl)-8-fluoro-2-(((2R,7aS)-2-fluorohexahydro-1H-pyrrolizin-7a-yl)methoxy)pyrido[4,3-d]pyrimidin-4-yl)-3-azabicyclo[3.2.1]octan-6-ol]	48	54	58	17	3	66	5	55	48	32	> 10000	193	87	76	64	216	–	–
CCc1c(F)ccc2cc(O)cc(-c3ncc4c(N5CCOCC(C)(O)C5)nc(OCC56CCCN5[C@H](COC(=O)N(C)C)CC6)nc4c3F)c12 (stereo in doubt) [Example 710, ((3S,7aR)-7a-(((7-(8-ethyl-7-fluoro-3-hydroxynaphthalen-1-yl)-8-fluoro-4-(6-hydroxy-6-methyl-1,4-oxazepan-4-yl)pyrido[4,3-d]pyrimidin-2-yl)oxy)methyl)hexahydro-1H-pyrrolizin-3-yl)methyl dimethylcarbamate]	80	74	88	2	4	83	3	86	88	25	2610	22	49	47	–	–	66	37
CCc1c(F)ccc2cc(O)cc(-c3ncc4c(N5CCC[C@@](C)(O)C5)nc(OC[C@@]56CCCN5[C@H](COC(=O)N5CCCCC5)CC6)nc4c3F)c12 [Example 721, ((3S,7aS)-7a-(((7-(8-ethyl-7-fluoro-3-hydroxynaphthalen-1-yl)-8-fluoro-4-((R)-3-hydroxy-3-methylpiperidin-1-yl)pyrido[4,3-d]pyrimidin-2-yl)oxy)methyl)hexahydro-1H-pyrrolizin-3-yl)methyl piperidine-1-carboxylate]	89	90	92	< 2	< 2	90	< 2	93	92	2	956	15	28	19	12	48	–	–
